# Data taken from patent US20190352358A1, “COMPOUNDS, COMPOSITIONS AND USES THEREOF FOR IMPROVEMENT OF BONE DISORDERS” (ALIZE PHARMA III SAS, priority 2017, published 2019).
# Non-standard residues stand in square brackets, D forms with d. Residues, ends and D or L forms follow the SMILES beside them. Primed or numbered codes have the meaning given here. No end group written: not given here. *: point of attachment. PEG20′ = PEG20 chain (pegylated), attached via a cysteine; C16 diacid = O=C(O)CCCCCCCCCCCCCCC(=O)*; Arachidoyl = CCCCCCCCCCCCCCCCCCCC(=O)*; Stearoyl = CCCCCCCCCCCCCCCCCC(=O)*; Palmitoyl = CCCCCCCCCCCCCCCC(=O)*
# Assays:
# [1] = tested on: MC-3T3 E1 clone 4 (CL4) osteoblast cells; test: Osteocalcin expression during in vitro osteoblast differentiation, PEGylated analogs (Example 6); type: cell-based; conditions: Table 17; test peptide 2 μg/mL; 18-21 day interval
# Description: (§1) Each peptide was tested in a biologic assay measuring its ability to stimulate differentiation of osteoblast cells over a 18-21 day interval as assessed by the stimulation of osteocalcin protein synthesis. MC-3T3 E1 clone 4 (CL4) osteoblast cells were obtained from ATCC (Manassas, Va., USA). Cells were cultured in α-MEM containing 10% fetal bovine serum (FBS; Thermo Fisher Scientific, Pittsburgh, Pa., USA). After confluency, culture medium was changed to differentiation medium (DM), which contained 10% FBS plus 50 μg/mL ascorbic acid and 4 mM β-glycerol phosphate, with or without a test peptide (2 μg/mL). Fresh DM, with or without test peptide, was applied every 72 hours. The cell monolayers were lysed in a modified radioimmunoprecipitation assay (RIPA) buffer. Total cellular protein in the lysates was determined using BCA (Thermo Fisher Scientific, Rockford, Ill., USA). Cell proteins are separated on SD S-PAGE gel and transferred on PVDF membrane for analysis. Osteocalcin detection was performed using anti-osteocalcin antibody at 1:200 dilution (Santa Cruz Biotechnology, Inc, Santa Cruz, Calif., USA) and visualized using enhanced chemiluminescence (Thermo Fisher Scientific, Rockford, Ill., USA).
# [2] = tested on: MC-3T3 E1 clone 4 (CL4) osteoblast cells; test: Osteocalcin expression during in vitro osteoblast differentiation, acylated and cyclic analogs (Example 7); type: cell-based; conditions: for Fold increase vs DM ± SE: Table 18, test peptide 1 μg/L, 18-21 day interval
# Description: as §1, with “Each acylated” for “Each”, “(1 μg/L).” for “(2 μg/mL).”, “SDS-PAGE” for “SD S-PAGE”
# In a separate experiment, the effect of cyclization was examined on of the HBD1 (3-11) peptide. The cyclic HBD1 (3-11) was synthetized and tested on the in vitro osteoblast differentiation assay.
# [3] = Pharmacokinetics in male Sprague Dawley rats after intravenous and subcutaneous injection (Example 10); type: in vivo; conditions: 1 μmol net peptide/kg, rat
# Description: The peptides were reconstituted in saline (0.9% NaCl). Three male Sprague Dawley rats were used per group. Intravenous doses were administered into a lateral tail vein at the dose of 1 μmol net peptide/kg. Subcutaneous doses were administered into the right flank of each animal, also at the dose of 1 μmol net peptide/kg. Following dosing, serial whole blood samples (ca. 0.25 mL) were collected from a lateral tail vein into K2EDTA treated containers. Following each blood sample collection, samples were placed into a cooling block at 4° C. Samples were collected prior to dosing then at 2, 5, 15 and 30 minutes then 1, 2, 4, 6 and 8 and 24 hours post dose for intravenous injection and at 15 and 30 minutes then 1, 2, 4, 6, 8 and 24 hours post dose for subcutaneous injection.
# Blood samples were centrifuged at 10000×g for 2 minutes at 4° C. and resultant plasma aspirated off into clean fully, labelled tubes. Plasma samples were snap frozen following aspiration then stored at −80° C. Peptides were extracted and analyzed as described in Example 9. The limits of quantification of these methods were 0.001 nmol/mL for cyclic HBD1 (3-11) and HBD1 (3-11) and 0.003 nmol/mL for HBD1 (1-13). All values below these limits of quantification were considered as zero.
# [4] = tested on: MC-3T3 E1 clone 4 (CL4) osteoblast cells; test: Osteocalcin expression during in vitro osteoblast differentiation, various doses of analogs (Example 8); type: cell-based; conditions: Table 19, 18 day interval
# Description: The peptides were tested at different concentrations in a biologic assay measuring their ability to stimulate differentiation of osteoblast cells over a 18 day interval as assessed by the stimulation of osteocalcin protein synthesis. MC-3T3 E1 clone 4 (CL4) osteoblast cells were obtained from ATCC (Manassas, Va., USA). Cells were cultured in α-MEM containing 10% fetal bovine serum (FBS; Thermo Fisher Scientific, Pittsburgh, Pa., USA). After confluency, culture medium was changed to differentiation medium (DM), which contained 10% FBS plus 50 μg/mL ascorbic acid and 4 mM β-glycerol phosphate, with or without an ascending dose of the peptide. Fresh DM, with or without the peptide, was applied every 72 hours. The cell monolayers were lysed in a modified radioimmunoprecipitation assay (RIPA) buffer. Total cellular protein in the lysates was determined using BCA (Thermo Fisher Scientific, Rockford, Ill., USA). Cell proteins are separated on SDS-PAGE gel and transferred on PVDF membrane for analysis. Osteocalcin detection was performed using anti-osteocalcin antibody at 1:200 dilution (Santa Cruz Biotechnology, Inc, Santa Cruz, Calif., USA) and visualized using enhanced chemiluminescence (Thermo Fisher Scientific, Rockford, Ill., USA).
# [5] = Stability of HBD1 fragments in human plasma; type: in vitro ADME
# Description: The peptides were spiked at 1 μg/mL (peptide backbone) into pre-warmed human K2EDTA plasma (at 37° C.) and incubated for up to 48 hours. Aliquots of plasma were extracted at specific time points (0, 24 and 48 hours post spike). Extraction was performed with acetonitrile:water (75:25, v/v) for HBD1 (1-13), HBD1 (1-13) with palmitic acid at the N-terminus (C16:0), HBD1 (3-11) with palmitic acid at the N-terminus (C16:0)) and HBD1 (3-11) with stearic acid at the N-terminus (C18:0) or with acetonitrile:water:formic acid (75:25:0.1, v/v/v) for HBD1 (3-11) and cyclic HBD1 (3-11). The peptides were analyzed using developed LC (C18 reverse phase column)—positive ion electrospray MS/MS methods specific to each peptide. The peak area at each time point was expressed as a percentage of the value obtained for the t=0 minutes time point.
# [6] = Pharmacokinetics of acylated analogs in male Sprague Dawley rats after subcutaneous injection (Example 11); type: in vivo; design: AUC(0-t): concentration or dose not given beside the values; conditions: sc, rat, Table 24
# Description: The peptides were reconstituted in saline (0.9% NaCl). Three male Sprague Dawley rats (approximately 6 weeks of age) were used per group. Subcutaneous doses were administered into the right flank of each animal […]. Following dosing, serial whole blood samples (ca. 0.3 mL) were collected from retro-orbital sinus into K2EDTA treated containers. Following each blood sample collection, samples were placed into a cooling block at 4° C. Samples were collected prior to dosing then at 15 and 30 minutes then 1, 2, 4, 6, 8 and 24 hours post dose for subcutaneous injection. Blood samples were centrifuged at 3500×rpm for 10 minutes at 4° C. and resultant plasma aspirated off into clean fully, labelled tubes. Plasma samples were snap frozen following aspiration then stored at −80° C. The peptides were extracted with acetonitrile:water (75:25, v/v) and analyzed using developed LC-MS/MS methods as described in Example 9. The limits of detection of these methods are 0.003 nmol/mL for HBD1 (1-13) with palmitic acid at the N-terminus (C16:0), 0.0008 nmol/mL for HBD1 (3-11) with palmitic acid at the N-terminus (C16:0), 0.0070 nmol/mL for HBD1 (3-11) with stearic acid at the N-terminus (C18:0), and 0.0015 nmol/mL for HBD1 (3-11) with myristic acid at the N-terminus (C14:0), HBD1 (3-11) with arachidic acid at the N-terminus (C20:0), HBD1 (3-11) with palmitic diacid at the N-terminus (C16:0-diacid), HBD1 (3-11) with palmitic acid at the C-terminus (C16:0). All values below these limits of quantification were considered as zero.
# [7] = male, Sprague Dawley, plasma, iv
# [8] = male, Sprague Dawley, plasma, sc
"AUC(0-t) ([6]; male, Sprague Dawley, plasma)","Cmax ([6]; male, Sprague Dawley, plasma)","Tmax ([6]; male, Sprague Dawley, plasma)",Tlast (last time point with detectable peptide) [6],Molecule,Fold increase vs SEQ ID NO: 1 ± SE [1],Fold increase vs DM ± SE [2],also measured
–,–,–,–,63 ([PEG20′]CKHHLGLEEPKKLR) [compound 63],1.4 ± 0.3 fold,–,–
–,–,–,–,64 (KHHLGLEEPKKLR; not fully specified; MOD_RES (13)..(13) Pegylated) [compound 64],2.2 ± 0.4 fold,–,–
–,–,–,–,65 ([PEG20′]CHHLGLEEPKK) [compound 65],1.4 ± 0.1 fold,–,–
–,–,–,–,66 (HHLGLEEPKK; not fully specified; MOD_RES (10)..(10) Pegylated) [compound 66],2.2 ± 0.2 fold,–,–
–,–,–,–,67 ([PEG20′]CHLGLEEPKK) [compound 67],1.9 ± 0.2 fold,–,–
–,–,–,–,"CC(C)C[C@@H]1NC(=O)CNC(=O)[C@H](CC(C)C)NC(=O)[C@H](Cc2c[nH]cn2)NC(=O)[C@H](CCCCN)NC(=O)[C@H](CCCCN)NC(=O)[C@@H]2CCCN2C(=O)[C@H](CCC(=O)O)NC(=O)[C@H](CCC(=O)O)NC1=O [SEQ ID NO: 77, Cyclic(HLGLEEPKK)] (cyclo(EEPKKHLGL))",–,–,"in vitro biological activity of acylated or cyclic peptides vs parent peptides (in words) ([2]; text on Table 18 and separate experiment): did not appear to change the in vitro biological activity; Tlast (last time point with detectable peptide) ([3]; iv, listed as Cyclic HBD1 (3-11)): 8 h; bioavailability ([3]; male, Sprague Dawley, plasma, subcutaneous, sc vs iv, read-out: F (bioavailability)): 48%; AUC(0-t) [3, 7]: 2.09 µM·h; Cmax [3, 7]: 5720 nM; Tmax [3, 7]: 1.98 min; AUC(0-t) [3, 8]: 0.99 µM·h; Cmax [3, 8]: 1060 nM; Tmax [3, 8]: 15 min; Tlast (last time point with detectable peptide) ([3]; sc, listed as Cyclic HBD1 (3-11)): 4 h; Tlast (last time point with detectable peptide) ([3]; sc, listed as cyclic HBD1 (3-11)): ≤ 4 h"
4.81 µM·h,540 nM,240 min,8 h,CCCCCCCCCCCCCCCCCC(=O)N[C@@H](Cc1c[nH]cn1)C(=O)N[C@@H](CC(C)C)C(=O)NCC(=O)N[C@@H](CC(C)C)C(=O)N[C@@H](CCC(=O)O)C(=O)N[C@@H](CCC(=O)O)C(=O)N1CCC[C@H]1C(=O)N[C@@H](CCCCN)C(=O)N[C@@H](CCCCN)C(=O)O [compound 73] (Stearoyl-HLGLEEPKK-OH),–,2.93 ± 0.16 fold,"Fold increase vs DM ± SD ([4]; dose 1.0 μM): 3.46 ± 0.47 fold; Fold increase vs DM ± SD ([4]; dose 2.0 μM): 4.48 ± 0.07 fold; Fold increase vs DM ± SD ([4]; dose 3.0 μM): 5.66 ± 0.45 fold; stability in human plasma (in words) ([5]; 24 and 48 hours incubation at 37° C.): similar; remaining at 24 h, 1 μg/mL ([5]; human, human K2EDTA plasma, spiked at 1 μg/mL, 37° C., 24 hours, read-out: Remaining parent peptide in human plasma 24 hours post spike): 89%; remaining at 48 h, 1 μg/mL ([5]; human, human K2EDTA plasma, spiked at 1 μg/mL, 37° C., 48 hours, read-out: Remaining parent peptide in human plasma 48 hours post spike): 91%"
2.58 µM·h,250 nM,120 min,8 h,CCCCCCCCCCCCCCCCCCCC(=O)N[C@@H](Cc1c[nH]cn1)C(=O)N[C@@H](CC(C)C)C(=O)NCC(=O)N[C@@H](CC(C)C)C(=O)N[C@@H](CCC(=O)O)C(=O)N[C@@H](CCC(=O)O)C(=O)N1CCC[C@H]1C(=O)N[C@@H](CCCCN)C(=O)N[C@@H](CCCCN)C(=O)O [compound 74] (Arachidoyl-HLGLEEPKK-OH),–,5.05 ± 0.95 fold,–
1.14 µM·h,580 nM,15 min,8 h,CC(C)C[C@H](NC(=O)CNC(=O)[C@H](CC(C)C)NC(=O)[C@H](Cc1c[nH]cn1)NC(=O)CCCCCCCCCCCCCCC(=O)O)C(=O)N[C@@H](CCC(=O)O)C(=O)N[C@@H](CCC(=O)O)C(=O)N1CCC[C@H]1C(=O)N[C@@H](CCCCN)C(=O)N[C@@H](CCCCN)C(=O)O [compound 75] ({C16 diacid}-HLGLEEPKK-OH; C-terminus assumed),–,3.39 ± 0.19 fold,–
–,–,–,8 h,CCCCCCCCCCCCCCCC(=O)NCCCC[C@H](NC(=O)[C@H](CCCCN)NC(=O)[C@@H]1CCCN1C(=O)[C@H](CCC(=O)O)NC(=O)[C@H](CCC(=O)O)NC(=O)[C@H](CC(C)C)NC(=O)CNC(=O)[C@H](CC(C)C)NC(=O)[C@@H](N)Cc1c[nH]cn1)C(=O)O [compound 76] (H-HLGLEEPKK(Palmitoyl)-OH; N-terminus and C-terminus assumed),–,3.18 ± 0.31 fold,AUC(0-t) ([6]; in vivo): 1.09 µM·h; Cmax ([6]; in vivo): 500 nM; Tmax ([6]; in vivo): 15 min
